{"source": "patent US20140024527A1", "about": "“HERBICIDAL PYRAZINONES” (E I DU DE NEMOURS AND COMPANY, priority 2011, published 2014)", "format_in_all_cases": "in vivo", "key": {"[1]": {"tested_on": "green foxtail (Setaria viridis)", "experiment": "Test B postemergence", "details": "scale 0 to 100", "excerpt": "Seeds of plant species selected from blackgrass (Alopecurus myosuroides), downy bromegrass (Bromus tectorum), green foxtail (Setaria viridis), Italian ryegrass (Lolium multiflorum), wheat (Triticum aestivum), wild oat (Avena fatua), galium (Galium aparine), bermudagrass (Cynodon dactylon), Surinam grass (Brachiaria decumbens), cocklebur (Xanthium strumarium), corn (Zea mays), large crabgrass (Digitaria sanguinalis), woolly cupgrass (Eriochloa villosa), giant foxtail (Setaria faberii), goosegrass (Eleusine indica), johnsongrass (Sorghum halepense), kochia (Kochia scoparia), lambsquarters (Chenopodium album), morningglory (Ipomoea coccinea), yellow nutsedge (Cyperus esculentus), pigweed (Amaranthus retroflexus), ragweed (Ambrosia elatior), soybean (Glycine max), velvetleaf (Abutilon theophrasti), barley (Hordeum vulgare), canarygrass (Phalaris minor), chickweed (Stellaria media), deadnettle (Lamium amplexicaule) and windgrass (Apera spica-venti) were planted in pots containing Redi-Earth® planting medium (Scotts Company, Marysville, Ohio, USA) comprising spaghnum peat moss, vermiculite, wetting agent and starter nutrients and treated postemergence with test compounds formulated in a non-phytotoxic solvent mixture which included a surfactant. Plants ranged in height from 2 to 18 cm (1- to 4-leaf stage).\nTreated plants and controls were maintained in a greenhouse for 13 to 15 days, after which time all species were compared to controls and visually evaluated. Plant response ratings, summarized in Table B, are based on a scale of 0 to 100 where 0 is no effect and 100 is complete control. A dash (-) response means no test result."}, "rice (Oryza sativa)": {"tested_on": "rice (Oryza sativa)", "experiment": "Test B flooded paddy test", "details": "Flood, scale 0 to 100", "excerpt": "(§1) Plant species in the flooded paddy test consisted of rice (Oryza sativa), umbrella sedge (Cyperus difformis), ducksalad (Heteranthera limosa) and barnyardgrass (Echinochloa crus-galli) grown to the 2-leaf stage for testing. At time of treatment, test pots were flooded to 3 cm above the soil surface, treated by application of test compounds directly to the paddy water, and then maintained at that water depth for the duration of the test. Treated plants and controls were maintained in a greenhouse for 13 to 15 days, after which time all species were compared to controls and visually evaluated. Plant response ratings, summarized in Table B, are based on a scale of 0 to 100 where 0 is no effect and 100 is complete control. A dash (-) response means no test result."}, "[2]": {"tested_on": "barnyardgrass (Echinochloa crus-galli)", "experiment": "Test B flooded paddy test", "details": "Flood", "excerpt": "as §1"}, "[3]": {"tested_on": "umbrella sedge (Cyperus difformis)", "experiment": "Test B flooded paddy test", "details": "Flood, scale 0 to 100", "excerpt": "as §1"}, "[4]": {"tested_on": "ducksalad (Heteranthera limosa)", "experiment": "Test B flooded paddy test", "details": "Flood, scale 0 to 100", "excerpt": "as §1"}, "[5]": {"tested_on": "morningglory (Ipomoea spp.)", "experiment": "Test A postemergence", "details": "0 to 100 scale, 0 no effect, 100 complete control, approx. 10 days", "excerpt": "(§2) Seeds of barnyardgrass (Echinochloa crus-galli), large crabgrass (Digitaria sanguinalis), giant foxtail (Setaria faberii), morningglory (Ipomoea spp.), pigweed (Amaranthus retroflexus), velvetleaf (Abutilon theophrasti), wheat (Triticum aestivum) and corn (Zea mays) were planted into a blend of loam soil and sand and treated preemergence with a directed soil spray using test chemicals formulated in a non-phytotoxic solvent mixture which included a surfactant. At the same time these species were also treated with postemergence applications of test compounds formulated in the same manner. Plants ranged in height from 2 to 10 cm and were in the one- to two-leaf stage for the postemergence treatments. Treated plants and untreated controls were maintained in a greenhouse for approximately 10 days, after which time all treated plants were compared to untreated controls and visually evaluated for injury. Plant response ratings, summarized in Table A, are based on a 0 to 100 scale where 0 is no effect and 100 is complete control."}, "[6]": {"tested_on": "wheat (Triticum aestivum)", "experiment": "Test A postemergence", "details": "0 to 100 scale, 0 no effect, 100 complete control, approx. 10 days", "excerpt": "as §2"}, "[7]": {"tested_on": "barnyardgrass (Echinochloa crus-galli)", "experiment": "Test A postemergence", "details": "0 to 100 scale, 0 no effect, 100 complete control, approx. 10 days", "excerpt": "as §2"}, "[8]": {"tested_on": "large crabgrass (Digitaria sanguinalis)", "experiment": "Test A postemergence", "details": "0 to 100 scale, 0 no effect, 100 complete control, approx. 10 days", "excerpt": "as §2"}, "[9]": {"tested_on": "velvetleaf (Abutilon theophrasti)", "experiment": "Test A postemergence", "details": "0 to 100 scale, 0 no effect, 100 complete control, approx. 10 days", "excerpt": "as §2"}, "[10]": {"tested_on": "pigweed (Amaranthus retroflexus)", "experiment": "Test A postemergence", "details": "0 to 100 scale, 0 no effect, 100 complete control, approx. 10 days", "excerpt": "as §2"}, "[11]": {"tested_on": "giant foxtail (Setaria faberii)", "experiment": "Test A postemergence", "details": "0 to 100 scale, 0 no effect, 100 complete control, approx. 10 days", "excerpt": "as §2"}, "corn (Zea mays) [12]": {"tested_on": "corn (Zea mays)", "experiment": "Test A postemergence", "details": "0 to 100 scale, 0 no effect, 100 complete control, approx. 10 days", "excerpt": "as §2"}, "[13]": {"tested_on": "morningglory (Ipomoea spp.)", "experiment": "Test A preemergence", "details": "0 to 100 scale, 0 no effect, 100 complete control, approx. 10 days", "excerpt": "as §2"}, "[14]": {"tested_on": "wheat (Triticum aestivum)", "experiment": "Test A preemergence", "details": "0 to 100 scale, 0 no effect, 100 complete control, approx. 10 days", "excerpt": "as §2"}, "[15]": {"tested_on": "barnyardgrass (Echinochloa crus-galli)", "experiment": "Test A preemergence", "details": "0 to 100 scale, 0 no effect, 100 complete control, approx. 10 days", "excerpt": "as §2"}, "[16]": {"tested_on": "large crabgrass (Digitaria sanguinalis)", "experiment": "Test A preemergence", "details": "0 to 100 scale, 0 no effect, 100 complete control, approx. 10 days", "excerpt": "as §2"}, "[17]": {"tested_on": "velvetleaf (Abutilon theophrasti)", "experiment": "Test A preemergence", "details": "0 to 100 scale, 0 no effect, 100 complete control, approx. 10 days", "excerpt": "as §2"}, "[18]": {"tested_on": "pigweed (Amaranthus retroflexus)", "experiment": "Test A preemergence", "details": "0 to 100 scale, 0 no effect, 100 complete control, approx. 10 days", "excerpt": "as §2"}, "[19]": {"tested_on": "giant foxtail (Setaria faberii)", "experiment": "Test A preemergence", "details": "0 to 100 scale, 0 no effect, 100 complete control, approx. 10 days", "excerpt": "as §2"}, "corn (Zea mays) [20]": {"tested_on": "corn (Zea mays)", "experiment": "Test A preemergence", "details": "0 to 100 scale, 0 no effect, 100 complete control, approx. 10 days", "excerpt": "as §2"}}, "data": [{"smiles": "COCCn1c(-c2cc(F)cc(F)c2)c(Cl)nc(C(=O)C2=C(O)CCCC2=O)c1=O", "note": "[Compound 6, 5-chloro-6-(3,5-difluorophenyl)-3-[(2-hydroxy-6-oxo-1-cyclohexen-1-yl)carbonyl]-1-(2-methoxyethyl)-2(1H)-pyrazinone]", "values": [{"measurement": "Plant response rating, Foxtail, Green", "setting": "[1]; 31 g ai/ha", "value": 50}, {"measurement": "Plant response rating, Foxtail, Green", "setting": "[1]; 62 g ai/ha", "value": 70}, {"measurement": "Plant response rating, Foxtail, Green", "setting": "[1]; 125 g ai/ha", "value": 85}, {"measurement": "Plant response rating, Foxtail, Green", "setting": "[1]; 250 g ai/ha", "value": 98}, {"measurement": "Plant response rating, Rice", "setting": "rice (Oryza sativa); 31 g ai/ha", "value": 0}, {"measurement": "Plant response rating, Rice", "setting": "rice (Oryza sativa); 62 g ai/ha", "value": 0}, {"measurement": "Plant response rating, Rice", "setting": "rice (Oryza sativa); 125 g ai/ha", "value": 0}, {"measurement": "Plant response rating, Rice", "setting": "rice (Oryza sativa); 250 g ai/ha", "value": 15}, {"measurement": "Plant response rating, Barnyardgrass", "setting": "[2]; 31 g ai/ha, scale 0 to 100", "value": 0}, {"measurement": "Plant response rating, Barnyardgrass", "setting": "[2]; 62 g ai/ha, scale 0 to 100", "value": 0}, {"measurement": "Plant response rating, Barnyardgrass", "setting": "[2]; 125 g ai/ha, scale 0 to 100", "value": 0}, {"measurement": "Plant response rating, Barnyardgrass", "setting": "[2]; 250 g ai/ha, scale 0 to 100 (0 no effect, 100 complete control)", "value": 50}, {"measurement": "Plant response rating, Sedge, Umbrella", "setting": "[3]; 31 g ai/ha", "value": 60}, {"measurement": "Plant response rating, Sedge, Umbrella", "setting": "[3]; 62 g ai/ha", "value": 70}, {"measurement": "Plant response rating, Sedge, Umbrella", "setting": "[3]; 125 g ai/ha", "value": 85}, {"measurement": "Plant response rating, Sedge, Umbrella", "setting": "[3]; 250 g ai/ha", "value": 90}, {"measurement": "Plant response rating, Ducksalad", "setting": "[4]; 31 g ai/ha", "value": 30}, {"measurement": "Plant response rating, Ducksalad", "setting": "[4]; 62 g ai/ha", "value": 50}, {"measurement": "Plant response rating, Ducksalad", "setting": "[4]; 125 g ai/ha", "value": 70}, {"measurement": "Plant response rating, Ducksalad", "setting": "[4]; 250 g ai/ha", "value": 80}, {"measurement": "Plant response rating, Morningglory", "setting": "[5]; 125 g ai/ha", "value": 90}, {"measurement": "Plant response rating, Morningglory", "setting": "[5]; 500 g ai/ha", "value": 100}, {"measurement": "Plant response rating, Wheat", "setting": "[6]; 125 g ai/ha", "value": 0}, {"measurement": "Plant response rating, Wheat", "setting": "[6]; 500 g ai/ha", "value": 20}, {"measurement": "Plant response rating, Barnyardgrass", "setting": "[7]; 125 g ai/ha", "value": 90}, {"measurement": "Plant response rating, Barnyardgrass", "setting": "[7]; 500 g ai/ha", "value": 100}, {"measurement": "Plant response rating, Crabgrass, Large", "setting": "[8]; 125 g ai/ha", "value": 80}, {"measurement": "Plant response rating, Crabgrass, Large", "setting": "[8]; 500 g ai/ha", "value": 100}, {"measurement": "Plant response rating, Velvetleaf", "setting": "[9]; 125 g ai/ha", "value": 100}, {"measurement": "Plant response rating, Velvetleaf", "setting": "[9]; 500 g ai/ha", "value": 100}, {"measurement": "Plant response rating, Pigweed", "setting": "[10]; 125 g ai/ha", "value": 70}, {"measurement": "Plant response rating, Pigweed", "setting": "[10]; 500 g ai/ha", "value": 100}, {"measurement": "Plant response rating, Foxtail, Giant", "setting": "[11]; 125 g ai/ha", "value": 50}, {"measurement": "Plant response rating, Foxtail, Giant", "setting": "[11]; 500 g ai/ha", "value": 90}, {"measurement": "Plant response rating, Corn", "setting": "corn (Zea mays) [12]; 125 g ai/ha", "value": 0}, {"measurement": "Plant response rating, Corn", "setting": "corn (Zea mays) [12]; 500 g ai/ha", "value": 40}, {"measurement": "Plant response rating, Morningglory", "setting": "[13]; 125 g ai/ha", "value": 40}, {"measurement": "Plant response rating, Morningglory", "setting": "[13]; 500 g ai/ha", "value": 80}, {"measurement": "Plant response rating, Wheat", "setting": "[14]; 125 g ai/ha", "value": 0}, {"measurement": "Plant response rating, Wheat", "setting": "[14]; 500 g ai/ha", "value": 20}, {"measurement": "Plant response rating, Barnyardgrass", "setting": "[15]; 125 g ai/ha", "value": 20}, {"measurement": "Plant response rating, Barnyardgrass", "setting": "[15]; 500 g ai/ha", "value": 90}, {"measurement": "Plant response rating, Crabgrass, Large", "setting": "[16]; 125 g ai/ha", "value": 90}, {"measurement": "Plant response rating, Crabgrass, Large", "setting": "[16]; 500 g ai/ha", "value": 100}, {"measurement": "Plant response rating, Velvetleaf", "setting": "[17]; 125 g ai/ha", "value": 50}, {"measurement": "Plant response rating, Velvetleaf", "setting": "[17]; 500 g ai/ha", "value": 100}, {"measurement": "Plant response rating, Pigweed", "setting": "[18]; 125 g ai/ha", "value": 50}, {"measurement": "Plant response rating, Pigweed", "setting": "[18]; 500 g ai/ha", "value": 90}, {"measurement": "Plant response rating, Foxtail, Giant", "setting": "[19]; 125 g ai/ha", "value": 20}, {"measurement": "Plant response rating, Foxtail, Giant", "setting": "[19]; 500 g ai/ha", "value": 70}, {"measurement": "Plant response rating, Corn", "setting": "corn (Zea mays) [20]; 125 g ai/ha", "value": 0}, {"measurement": "Plant response rating, Corn", "setting": "corn (Zea mays) [20]; 500 g ai/ha", "value": 20}]}]}
